# Patent publication US8367060B2, “Pharmaceutical composition containing arazyme for the prevention of liver dysfunction” (Insect Biotech Co., Ltd., priority 2006, dated 2013)
# “Also recorded” adds a separate entry of the source.
# What was measured:
# [1] = system: liver cells; test: Histopathological observation on liver cells (H&E) in CCl4-induced acute liver injury; format: in vivo, mice; conditions: for necrosis in liver cells: 100 mg/kg oral one day before CCl4 0.4 ml/kg i.p., autopsy 24 hours after CCl4
# From the text: In the present invention, male wild type C57BL/6(WT) at 12 weeks and SMP30 knock-out C57BL/6(KO) mice were used to induce liver injury by CCl4 and then the relation of SMP30 with arazyme was investigated. 10 male and 20 female SMP30 knock-out C57BL/6 mice were distributed from Tokyo Metropolitan Institute of Gerontology, which were then raised in the animal laboratory at Department of Pathology, College of Veterinary Medicine, Kyungpook National University, Korea. Among F1 mice generated by breeding, knock-out mice were selected by tail DNA genotyping by PCR.
# Wild type mice were quarantined and adapted for 7 days in the animal laboratory. During the adaptation, every symptom was checked and only healthy animals were selected. Both wild type and SMP30 knock-out mice were 12 weeks old, excluding the difference in age.
# Rats were adapted and raised in an animal facility where temperature was regulated to 22±3° C., humidity was adjusted to 55±10% and light was also regulated to 12L/12D (08:00 lights on, 20:00 lights out). The environmental conditions were checked regularly (every three months). After environmental evaluation, no changes in important conditions were recognized. During the whole experiment period, rats were raised in polycarbonate cages [240 W×390 L×175 H (mm)] by up to 5 per cage. Skin mark using an oil magic pen and individual identification card were used for distinguishment. Feed for laboratory animals (PMI Nutrition International, 505 North 4th Street Richmond, in 47374, USA) was provided at any time after being sterilized by irradiation (13.2 kGy). Tap water was provided using a water bottle at any time after being purified by a carbon filter. Carbon tetrachloride was diluted in olive oil at the concentration of 0.4 ml/kg and administered to […] once to induce liver injury. 24 hours after the administration, autopsy was performed.
# Wild type mice and SMP30 knock-out mice were divided, by 5 of each, into negative control groups (G1, G5), positive control groups (G2, G6), two of experimental group 1 (G3, G7) and two of experimental group 2 (G4, G8) (Table 1). […]
# [2] = system: SMP30; test: Immunohistochemical observation of SMP30 in liver cells; format: in vivo; conditions: wild type mice, 100 mg/kg oral before CCl4, compared with CCl4 alone
# Method: (§1) Wild type mice and SMP30 knock-out mice were divided, by 5 of each, into negative control groups (G1, G5), positive control groups (G2, G6), two of experimental group 1 (G3, G7) and two of experimental group 2 (G4, G8) (Table 1). Intraperitoneal administration of olive oil was performed once to negative control mice (G1, G5), while intraperitoneal administration of CCl4 (0.4 ml/kg) was performed once to positive control mice (G2, G6). In the meantime, 100 mg/kg of vitamin C dissolved in tap water was orally administered to experimental group 1 mice (G3, G7) one day before the intraperitoneal administration of CCl4 (0.4 ml/kg). 100 mg/kg of arazyme dissolved in tap water was orally administered to experimental group 2 mice (G4, G8) one day before the intraperitoneal administration of CCl4 (0.4 ml/kg). 24 hours after the administration of CCl4, autopsy was performed in every mouse and samples were taken from each mouse for histopathological test.
# To observe SMP30 in liver cells immunohistochemically, paraffin embedded tissues fixed with formalin were cut into 4 μm thick sections, followed by deparaffinization. To inhibit the activity of endogenous peroxidase, the sections were treated in 3% H2O2 for 30 minutes and washed with 0.01 M PBS. To increase antigen expression of the tissues, the sections were treated with 0.01 M citrate buffer, followed by heat treatment using microwave. […]
# [3] = system: SMP30; test: Expression of SMP30 in liver cells by immunoblotting; format: in vivo; conditions: wild type mice; 100 mg/kg oral before CCl4; compared with CCl4 only (G2)
# Method: as §1
# (§2) The expression of SMP30 in liver cells was investigated by immunoblotting. First, the liver tissues frozen at −70° C. were homogenized in RIPA buffer containing 0.1 mM sodium orthovandate (Na3VO4) and protease inhibitor cocktail tablet (Roche, Mannheim, Germany). […] Protein concentration was measured by Bradford method and each protein sample proceeded onto 10% SDS-polyacrylamide gel at the concentration of 80 µg/well, followed by electrophoresis. […]
# [4] = system: P-smad3; test: Immunohistochemical observation of P-smad3 expression in liver cells; format: in vivo, mice; conditions: 100 mg/kg oral before CCl4
# [5] = system: P-smad3; test: Expression of P-smad3 in liver cells by immunoblotting; format: in vivo; conditions: SMP30 knock-out mice; compared with CCl4 alone (G6)
# Method: as §1, §2
smiles,measurement,setting,value
"O=C1O[C@H]([C@@H](O)CO)C(O)=C1O [vitamin C, L-ascorbic acid, reference compound]",necrosis in liver cells,[1]; SMP30 knock-out C57BL/6 mice,significantly inhibited
same,necrosis in liver cells,[1]; wild type C57BL/6 mice,significantly inhibited
same,"apoptosis of liver cells, histological observation",[1]; wild type and SMP30 knock-out mice with acute liver injury,inhibition of apoptosis of liver cells was observed
same,SMP30 expression (immunohistochemistry),[2],higher; also recorded: more strongly expressed
same,SMP30 expression (immunoblotting),[3],high
same,P-smad3 immune response (immunohistochemistry),"[4]; SMP30 knock-out mice, G6, G7 compared with G8",strongly detected
same,P-smad3 immune response (immunohistochemistry),"[4]; wild type mice, compared with CCl4 only (G2), 100 mg/kg","strong immune response against P-smad3 was detected in group 2 (G2) treated with CCl4 only, compared with the groups (G3, G4) treated with vitamin C and arazyme; also recorded: strongly observed in CCl4 treated group (G2), compared with the groups treated with vitamin C and arazyme (G3, G4)"
same,P-smad3 expression (immunoblotting),[5],inhibited
